Publication PMC11012799 (Molecules, 2024)

Assays:
[1] = system: HeLa cells; assay: cells; type: cell-based, human; conditions: for IC50: Homo sapiens, 24 h, read-out: IC50 (µM) HeLa; for selectivity index (SI) HeLa: efficacy against HeLa versus normal fibroblasts L929, SI > 1.0 = greater efficacy against cancer cells
Description: (§1) Considering our previous research and the literature reports on the antitumor activity of aziridine derivatives, aziridine phosphines (1–4) and aziridine phosphine oxides (5–9) were tested to investigate their potential anticancer activity. The in vitro effects on cell viability were assessed using the 3-(4,5-dimethylthiazol-2-yl)-2,5-diphenyltetrazolium bromide (MTT) assay on non-tumorigenic murine fibroblasts (L929) as well as two cancer cell lines: human cervical epithelioid carcinoma (HeLa) cells and endometrial adenocarcinoma (Ishikawa) cells.
(§2) Cell viability inhibition: The in vitro effects on cell viability were determined using the 3-(4,5-dimethylthiazol-2-yl)-2,5-diphenyltetrazolium bromide (MTT) assay on non-tumorigenic murine fibroblasts L929 (ATTC®—CCL-1) as well as two cancer cell lines: human cervical epithelioid carcinoma HeLa cells (ATTC®—CCL-2™) and endometrial adenocarcinoma Ishikawa cells (ECACC 99040201). Cells were cultured on 96-well microplates at a density of 1 × 10^4 cells/well following the international in Dulbecco’s Modified Eagle’s Medium (DMEM, Biowest) supplemented with 10% fetal bovine serum (FBS, Biowest, Nuaillé, France), 100 U/mL of penicillin, and 100 μg/mL of streptomycin (Biowest, Nuaillé, France). After overnight incubation at 37 °C and 5% CO2, the growth medium was removed and 100 μL of fresh media with two-fold dilutions of the tested compounds at concentrations of 3.125–100 μM were added. […] Untreated cells in medium were used as a positive control, while a clear culture medium served as a negative control.

[2] = system: Ishikawa cells; assay: cells; type: cell-based, human; conditions: for IC50: Homo sapiens, Ishikawa, 24 h, read-out: IC50 (µM) Ishikawa; for selectivity index (SI) Ishikawa: efficacy against Ishikawa versus normal fibroblasts L929, SI > 1.0 = greater efficacy against cancer cells
Description: as §1, §2

[3] = system: L929 cells; assay: cells; type: cell-based, murine; conditions: Mus musculus, L929, 24 h, read-out: IC50 (µM) L929
Description: as §1, §2

[4] = system: HeLa cells; assay: Cell cycle analysis (PI staining, flow cytometry); type: cell-based, human; conditions: 24 h, concentration corresponding to IC50
Description: The MTT and LDH release assays provided evidence that aziridine phosphine oxides 5 and 7 inhibit cancer cell viability at concentrations equal to their respective IC50 values through antiproliferative mechanisms rather than by inducing cell death. It is expected that such observations will be reflected in cell cycle disturbances. To investigate which phase of the cell cycle is arrested, a cell cycle analysis was performed using propidium iodide (PI) staining. PI binds in proportion to the amount of DNA present in the cell. As a result of DNA replication, the cells in the S phase of the cell cycle contain more DNA than cells in the G1 phase. […] Before the exact analysis of the obtained results, we utilized a pre-gate to define the counted cells to be analyzed for cell cycle distribution. […] These findings confirmed the antiproliferative activity of these compounds.
Figure 4 Effects of 5 and 7 on cell cycle phase distribution in HeLa cells compared to untreated control. […] Data are expressed as mean ± SD of two independent experiments. Statistical significance in comparison with the untreated control, measured by two-way analysis of variance (ANOVA) followed by Bonferroni multiple comparison test, is indicated by asterisks: (*) p < 0.05, (**) p < 0.01, (***) p < 0.001.
Cell cycle analysis: The distribution of cell cycle phases was measured using flow cytometry and propidium iodide (PI) staining. The PI intercalates into the major groove of double-stranded DNA, producing a highly fluorescent signal when excited at 488 nm, with a broad emission centered around 600 nm. PI binds in proportion to the amount of DNA present in the cell. HeLa cells were seeded on 60 mm dishes at a density of 5 × 10^5 in 3 mL of Dulbecco’s Modified Eagle’s Medium F12 (DMEM-F12, Biowest, Nuaillé, France) supplemented with 10% fetal bovine serum (FBS, Biowest), 100 units/mL of penicillin G and 100 μg/mL of streptomycin (Biowest, Nuaillé, France) and incubated for 24 h at 37 °C and 5% CO2. Then, compounds 5 or 7 were added at a concentration corresponding to their IC50 values and the plate was incubated for the next 24 h. Untreated cells were used as a positive control. The cells were then harvested by trypsinization, suspended in culture medium (1 mL), centrifuged at 3600 rpm for 10 min, and washed twice with dPBS (Dulbecco’s phosphate-buffered saline, Cytogen–Polska Sp. z o.o, Zgierz, Poland). The cell sediment was resuspended in dPBS (600 μL) and fixed in 70% ice-cold ethanol. After storing the cells at 4 °C for 24 h, they were stained in PI staining solution (600 µL, 50 μg/mL of PI, and 100 μg/mL of RNAse A in dPBS) and incubated for 30 min at 37 °C in darkness. The cell cycle distribution was analyzed by flow cytometry using an LSRII (Becton Dickinson, Franklin Lakes, NJ, USA) instrument at 488 nm excitation and 535/617 emission wavelengths, and the cell cycle phase distribution from two independent experiments (10,000 cell counts/sample) was determined with the FlowJo 7.6.1 software (FlowJo, LLC, Ashland, OR, USA) using a built-in cell cycle analysis module (Watson pragmatic algorithm).

SMILES	IC50 [1]	selectivity index (SI) HeLa [1]	IC50 [2]	selectivity index (SI) Ishikawa [2]	IC50 [3]	cell cycle arrest (phase distribution) [4]	number of cells in the sub-G1 phase (indicative of apoptosis) [4]	stage of S-phase arrest (histograms of cell cycle distribution) [4]
CC(C)C[C@H]1CN1c1ccccc1P(=O)(c1ccccc1)c1ccccc1 [Compound 7]	7.1 ± 2.6 µM	2.5	10.5 ± 3.1 µM	1.7	17.5 ± 2.1 µM	significant cell arrest in the S phase	significantly increased	more effective in the late S phase
CC(C)[C@@H]1CN1c1ccccc1P(=O)(c1ccccc1)c1ccccc1 [Compound 5]	6.4 ± 2.1 µM	1.7	4.6 ± 2.3 µM	2.3	10.6 ± 3.2 µM	significant cell arrest in the S phase	significantly increased	cell arrest mainly in the early stages of the S phase
